“Also recorded” adds a separate entry of the source.
Tests used:
[1] = system: STING signaling; test: IFNβ ELISA in normal hTERT cells after ISD transfection; type: cell-based, human
Description: Example 9: Interferon β Elisa analysis: Interferon β Elisa was performed using either the IFNβ human ELISA Kit from Invitrogen or the Human IFNβ ELISA Kit from PBL Interferon Source following the manufacturer's protocol.

[2] = biological target: T1, human STING CBD-CTT (152-379) (STING152-379H) (Homo sapiens, UniProt Q86WV6); test: Thermal shift assay (TSA) for binding to purified STING; conditions: purified STING152-379H
T1 construct: Fraction containing the 237 amino acid (27 kDA) STING protein; made in house; host or cells: E. coli BL21 DE3 RIPL Codon Plus
T1 sequence (Q86WV6 with tags, fused parts or gaps): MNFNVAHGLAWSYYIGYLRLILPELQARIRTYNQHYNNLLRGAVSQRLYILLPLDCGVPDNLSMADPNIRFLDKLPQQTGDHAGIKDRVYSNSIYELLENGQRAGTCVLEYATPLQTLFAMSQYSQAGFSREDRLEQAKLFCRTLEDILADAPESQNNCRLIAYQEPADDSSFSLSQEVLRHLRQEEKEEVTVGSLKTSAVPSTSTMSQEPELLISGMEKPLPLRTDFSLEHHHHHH
Excerpt: Purified STING protein was used as bait to identify binding compounds, using a thermal shift assay (TSA). A library containing 250,000 compounds (Enamine, Monmouth Jct., NJ) was surveyed. Compounds that bound to STING were then examined for their ability to inhibit STING signaling, see Examples 1-4 vide infra. In the presence of cytosolic DNA species, STING becomes activated to drive the transcription of cytokines such as type I IFN. Compounds binding to STING via TSA were subsequently examined for their ability prevent cytosolic DNA species from activating the type I interferon (IFN) promoter, using a live cell assay. This assay comprised immortalized human fibroblasts (hTERT) that were stably transfected with the type I IFN promoter driving luciferase as well as the CMV promoter driving SEAP (hTERT-pIFNβ-Glu). The ability of the small molecules to prevent activation of the type I IFN promoter and the transcription of luciferase, but not SEAP in response to cytosolic DNA species can be assessed. The activation of STING, typically by CDNs, in turn activates the transcription factors NF-κB and IRF3, both of which are required to induce the transcriptional stimulation of the Type I IFN promoter, but not the CMV promoter (IRF3 and NF-kB transcription factor binding sites are not contained in the CMV promoter). […]

[3] = system: STING signaling; test: qPCR of Cxcl10 / Cxcl5 in MEF cells after ISD transfection; type: cell-based, murine
Description: MEFs were obtained from E13.5 embryos by a standard procedure. Bone Marrow Derived Macro-phages (BMDM) were isolated from hind-limb femurs of 8-10 weeks old WT and Trex1 KO (TKO) mice. The hematopoietic cells from the bone marrow were cultured in complete DMEM (Invitrogen) including 10 ng/ml of Mouse Recombinant Colony-Stimulating Factor (M-CSF, R&D Systems) for 10 to 14 days.
Example 11: qPCR total RNA were reverse-transcribed using M-MLV Reverse Transcriptase (Promega). Real-time PCR was performed using Taqman Gene Expression Assay (Applied Biosystems) for innate immune genes and inflammatory cytokines.

## N#Cc1c(NC(=O)c2ccccc2Cl)n(Cc2ccccc2)c2nc3ccccc3nc12 [Compound Y1, N-{1-benzyl-3-cyano-1H-pyrrolo[2,3-ß]quinoxalin-2-yl}-2-chlorobenzamide]
[1]
  IFNβ production (ELISA): dramatically decreased IFNβ expression and production
[2]
  binding to STING (TSA): binds to and stabilizes STING; also recorded: can bind to STING
[3]
  Cxcl10 production in response to ISD (qPCR): dramatically decreased
[3]; 50 μM
  Cxcl5 production in response to ISD (qPCR): dramatically decreased

Reference: patent US12410174B1, “Small molecular inhibitors of sting signaling compositions and methods of use” (TYERELL IMMUNOTHERAPEUTICS INC, priority 2020, dated 2025)
